# From ChEMBL document CHEMBL1806427, “Pyridine-derived γ-secretase modulators” (Bioorg Med Chem Lett, 2011)
# Activity calls are given as the source filed them. The rule behind the calls is not given here.
# Assays:
# Gamma-secretase [1] = experiment: Inhibition of gamma-secretase in human SHSY5Y cells expressing human recombinant Swedish variant of APP K595N/M596L assessed as reduction of amyloid beta42 level after 48 hrs by AlphaLISA assay; format: cell-based; details: sh-sy5y
# Gamma-secretase [2] = experiment: Inhibition of gamma-secretase in human SHSY5Y cells expressing human recombinant Swedish variant of APP K595N/M596L assessed as reduction of amyloid beta40 level after 48 hrs by AlphaLISA assay; format: cell-based; details: sh-sy5y
# [3] = Inhibition of gamma-secretase expressed in african green monkey CV1 cells co-expressing Gal4 DNA-binding/transactivation domain assessed as inhibition of notch processing after 22 hrs by luciferase reporter assay; format: cell-based; details: CV-1, 22 h
# [4] = target: T1, Gamma-secretase (Homo sapiens) (UniProt Q96BI3+Q9NZ42+Q8WW43+P49768+Q92542+P49810); experiment: Inhibition of gamma-secretase in human SHSY5Y cells expressing human recombinant Swedish variant of APP K595N/M596L assessed as reduction of amyloid beta42 level after 24 hrs by DELFIA assay; format: cell-based; details: SH-SY5Y
# [5] = target: T1, Gamma-secretase (Homo sapiens); experiment: Inhibition of gamma-secretase in human SHSY5Y cells expressing human recombinant Swedish variant of APP K595N/M596L assessed as reduction of amyloid beta40 level after 24 hrs by DELFIA assay; format: cell-based; details: SH-SY5Y
# [6] = target: T1, Gamma-secretase (Homo sapiens); experiment: Inhibition of gamma-secretase in human SHSY5Y cells expressing human recombinant Swedish variant of APP K595N/M596L assessed as increase of total amyloid beta level after 24 hrs by DELFIA assay; format: cell-based; details: SH-SY5Y
# Rattus norvegicus [7] = experiment: Antialzheimer activity in Sprague-Dawley rat assessed as reduction of amyloid beta42 level in brain at 30 mg/kg/day, po for 5 days measured 6 hrs after last dose; format: functional; design: scale not given: the % may be the effect or the level left
# [8] = Drug level in Sprague-Dawley rat brain at 30 mg/kg/day, po for 5 days measured 6 hrs after last dose; format: ADME, organism-based; design: route oral; details: read-out: Drug uptake
# Rattus norvegicus [9] = experiment: Toxicity in Sprague-Dawley rat assessed as effect on Notch-mediated Hes-1 mRNA level in ileum at 30 mg/kg/day, po for 5 days measured 6 hrs after last dose; format: organism-based; design: route oral; details: in vivo
# Rattus norvegicus [10] = experiment: Toxicity in Sprague-Dawley rat assessed as effect on Notch-mediated CD4 level in thymocytes at 30 mg/kg/day, po for 5 days measured 6 hrs after last dose; format: organism-based; design: route oral; details: in vivo
# Rattus norvegicus [11] = experiment: Toxicity in Sprague-Dawley rat assessed as effect on Notch-mediated CD8 level in thymocytes at 30 mg/kg/day, po for 5 days measured 6 hrs after last dose; format: organism-based; design: route oral; details: in vivo
# SH-SY5Y = experiment: Toxicity in human SH-SY5Y cells assessed as cell viability up to 3 uM by WST-1 assay; format: cell-based
# Blood = experiment: Drug level in Sprague-Dawley rat blood at 30 mg/kg, po; format: ADME, organism-based; design: dose 30 mg/kg, route oral; details: in vivo, read-out: Drug uptake
# Brain = experiment: Drug level in Sprague-Dawley rat brain at 30 mg/kg, po; format: ADME, organism-based; design: dose 30 mg/kg, route oral; details: in vivo, read-out: Drug uptake
# [12] = Ratio of drug level in brain to blood in Sprague-Dawley rat at 30 mg/kg, po; format: ADME, organism-based; design: dose 30 mg/kg, route oral; details: brain/whole blood, read-out: BBR
# [13] = Blood clearance in Sprague-Dawley rat at 1 mg/kg, iv and 2 mg/kg, po; format: ADME, organism-based; details: whole blood
# [14] = Volume of distribution at steady state in Sprague-Dawley rat at 1 mg/kg, iv and 2 mg/kg, po; format: ADME, organism-based; details: in vivo, read-out: Vdss
# [15] = Half life in Sprague-Dawley rat at 1 mg/kg, iv and 2 mg/kg, po; format: ADME, organism-based; details: in vivo
# [16] = Oral bioavailability in Sprague-Dawley rat at 2 mg/kg; format: ADME, organism-based; details: in vivo
pIC50 (Gamma-secretase [1]),pIC50 (Gamma-secretase [2]),IC50 [3] [µM],Structure (SMILES),further results
6.4,5.7,12.6,COc1cc(-c2ccc(N[C@@H](C)c3ccc(F)cc3)nc2)ccc1-c1ccnnc1,–
6.5,4.5,–,COc1cc(-c2noc(N[C@@H](C)c3ccc(F)cc3)n2)ccc1-n1cnc(C)c1,–
4.3,4.4,–,Cc1cn(-c2ccc(-c3ccc(N[C@@H](C)c4ccc(F)cc4)nc3)cc2N(C)C)cn1,–
6.7,6,10,COc1cc(-c2cnc(N[C@@H](C)c3ccc(F)cc3)nc2)ccc1-n1cnc(C)c1,–
6.4,5.3,10,COc1cc(-c2ccc(N[C@@H](C)c3ccc(F)cc3)nc2)ccc1-c1sc(C)nc1C,–
6.4,5.7,–,Cc1cn(-c2ccc(-c3ccc(N[C@@H](C)c4ccc(F)cc4)nc3)cc2Cl)cn1,–
–,–,–,COc1cc(-c2ccc(N[C@@H](C)c3ccc(F)cc3)nc2)ccc1-n1cnc(C)c1 [listing 1 of 2 here],inhibition [4]: Dose-dependent effect; inhibition [5]: Dose-dependent effect; inhibition [6]: Active
–,–,–,COc1cc(-c2cc(C)c(N[C@@H](C)c3ccc(F)cc3)nn2)ccc1-n1cnc(C)c1,Activity (Rattus norvegicus [7]): 45.7%; concentration at 6 h [8]: 10.4 µM; Activity (Rattus norvegicus [9]): Non-toxic; Activity (Rattus norvegicus [10]): Non-toxic; Activity (Rattus norvegicus [11]): Non-toxic
5.5,5.1,–,Cc1cn(-c2ccc(-c3ccc(N[C@@H](C)c4ccc(F)cc4)nc3)cc2OC(C)C)cn1,–
6.3,5.3,–,CCOc1cc(-c2ccc(N[C@@H](C)c3ccc(F)cc3)nc2)ccc1-n1cnc(C)c1,–
6.3,5.2,6.31,COc1cc(-c2ccc(N[C@@H](C)c3ccc(F)cc3)nc2)ccc1-c1ccnc(C)c1,–
6.6,5.7,15.8,COc1cc(-c2ccc(N[C@@H](C)c3ccc(F)cc3)nc2)ccc1-c1cc(C)ns1,–
6.2,5,6.31,COc1cc(-c2ccc(N[C@@H](C)c3ccc(F)cc3)cn2)ccc1-n1cnc(C)c1,–
6.9,6.1,10,COc1cc(-c2ccc(N[C@@H](C)c3ccc(F)cc3)nc2)ccc1-n1cnc(C)c1 [listing 2 of 2 here],Activity (SH-SY5Y): Non-toxic; concentration (Blood): 4.98 µM; concentration (Brain): 8.75 µM; Kp [12]: 1.74; Activity (Rattus norvegicus [7]): 27.6%; concentration at 6 h [8]: 8.86 µM; Activity (Rattus norvegicus [9]): Non-toxic; Activity (Rattus norvegicus [10]): Non-toxic; Activity (Rattus norvegicus [11]): Non-toxic
6.6,5.9,10,COc1cc(-c2ncc(N[C@@H](C)c3ccc(F)cc3)cn2)ccc1-n1cnc(C)c1,–
–,–,–,COc1cc(-c2ccc(N[C@@H](C)c3ccc(F)cc3)nc2)ccc1-n1cnc(C)c1.Cl,clearance [13]: 12.2 mL/min/kg; Vd [14]: 3.7 L/kg; half-life [15]: 3.3 h; bioavailability [16]: 100%
< 4,< 4,–,CNC(=O)c1cc(-c2ccc(N[C@@H](C)c3ccc(F)cc3)nc2)ccc1-n1cnc(C)c1,–
6.1,4.3,–,COc1cc(-c2cnc(N[C@@H](C)c3ccc(F)cc3)s2)ccc1-n1cnc(C)c1,–
7.1,6.2,–,COc1cc(-c2nnc(N[C@@H](C)c3ccc(F)cc3)s2)ccc1-n1cnc(C)c1,–
5.2,4.8,–,Cc1cn(-c2ccc(-c3ccc(N[C@@H](C)c4ccc(F)cc4)nc3)cc2C)cn1,–
4.8,5,–,Cc1cn(-c2ccc(-c3ccc(N[C@@H](C)c4ccc(F)cc4)nc3)cc2-c2ccccc2)cn1,–
